Tests used:
Type in all cases: cell-based, human
[1] = tested on: A549/ATCC; test: NCI-60 one-dose screen (non-small cell lung cancer); conditions: 10 µM single dose, 48 h
Description: (§1) The obtained quinolinequinones were submitted to NCI, Bethesda, USA, and, as per standard protocol of NCI, all compounds were evaluated for their antiproliferative activity at single-dose assay (10 µM concentration in DMSO) on a panel of 60 cancer cell lines derived from leukemia, non-small-cell lung, colon, CNS, melanoma, ovarian, renal, prostate, and breast, as per protocol. Tested compounds were added to the microtiter culture plates followed by incubation for 48 h at 37 °C. Sulforhodamine B (SRB), a protein-binding dye, is used for endpoint determination. The percent of the growth of the treated cells was determined in comparison to the untreated control cells and the results of each tested compound were reported. Data from one-dose experiments pertain to the percentage growth at 10 μM [16, 17, 18].

[2] = tested on: EKVX; test: as above; conditions: 10 µM single dose, 48 h
Description: as §1

[3] = tested on: HOP-62; test: as above; conditions: 10 µM single dose, 48 h
Description: as §1

[4] = tested on: HOP-92; test: as above; conditions: 10 µM single dose, 48 h
Description: as §1

[5] = tested on: NCI-H226; test: as above; conditions: 10 µM single dose
Description: as §1

[6] = tested on: NCI-H23; test: as above; conditions: 10 µM single dose, 48 h
Description: as §1

[7] = tested on: NCI-H322M; test: as above; conditions: 10 µM single dose
Description: as §1

[8] = tested on: NCI-H460; test: as above; conditions: 10 µM single dose
Description: as §1

[9] = tested on: NCI-H522; test: as above; conditions: 10 µM single dose, 48 h
Description: as §1

[10] = tested on: HL-60(TB); test: NCI-60 five-dose assay (leukemia); conditions: 48 h, SRB
[11] = tested on: SR; test: NCI-60 five-dose assay (leukemia); conditions: 48 h, SRB
[12] = tested on: NCI-H226; test: NCI-60 five-dose assay (non-small cell lung cancer); conditions: 48 h, SRB
[13] = tested on: NCI-H322M; test: as above; conditions: 48 h, SRB
[14] = tested on: NCI-H522; test: as above; conditions: 48 h, SRB
[15] = tested on: COLO 205; test: NCI-60 five-dose assay (colon cancer); conditions: 48 h, SRB
[16] = tested on: HCT-15; test: NCI-60 five-dose assay (colon cancer); conditions: 48 h, SRB
[17] = tested on: KM12; test: NCI-60 five-dose assay (colon cancer); conditions: 48 h, SRB
[18] = tested on: SF-268; test: NCI-60 five-dose assay (CNS cancer); conditions: 48 h, SRB
[19] = tested on: SF-295; test: NCI-60 five-dose assay (CNS cancer); conditions: 48 h, SRB
[20] = tested on: SNB-75; test: NCI-60 five-dose assay (CNS cancer); conditions: 48 h, SRB
[21] = tested on: U251; test: NCI-60 five-dose assay (CNS cancer); conditions: SRB
[22] = tested on: M14; test: NCI-60 five-dose assay (melanoma); conditions: 48 h, SRB
[23] = tested on: MDA-MB-435; test: NCI-60 five-dose assay (melanoma); conditions: 48 h, SRB
[24] = tested on: SK-MEL-2; test: NCI-60 five-dose assay (melanoma); conditions: 48 h, SRB
[25] = tested on: OVCAR-4; test: NCI-60 five-dose assay (ovarian cancer); conditions: 48 h, SRB
[26] = tested on: OVCAR-5; test: NCI-60 five-dose assay (ovarian cancer); conditions: 48 h, SRB
[27] = tested on: A498; test: NCI-60 five-dose assay (renal cancer); conditions: 48 h, SRB
[28] = tested on: CAKI-1; test: NCI-60 five-dose assay (renal cancer); conditions: 48 h, SRB
[29] = tested on: RXF 393; test: NCI-60 five-dose assay (renal cancer); conditions: 48 h, SRB
[30] = tested on: SN12C; test: NCI-60 five-dose assay (renal cancer); conditions: 48 h, SRB
[31] = tested on: TK-10; test: NCI-60 five-dose assay (renal cancer); conditions: 48 h, SRB
[32] = tested on: UO-31; test: NCI-60 five-dose assay (renal cancer); conditions: 48 h, SRB
[33] = tested on: BT-549; test: NCI-60 five-dose assay (breast cancer); conditions: 48 h, SRB
[34] = tested on: T-47D; test: NCI-60 five-dose assay (breast cancer); conditions: 48 h, SRB
[35] = Homo sapiens, read-out: LC50 (the source's name)

CCOc1ccccc1NC1=C(Cl)C(=O)c2nc(C)ccc2C1=O [AQQ2]
GP (growth percentage) [1]: 59.11% | GP (growth percentage) [2]: −2.24% | GP (growth percentage) [3]: 84.25% | GP (growth percentage) [4]: −89.25% | GP (growth percentage) ([5]; 48 h): 17.62% | inhibition at 10 µM ([5]; Homo sapiens): 82.4% | GP (growth percentage) [6]: −67.81% | GP (growth percentage) ([7]; 48 h): 28.84% | inhibition at 10 µM ([7]; Homo sapiens): 71.2% | GP (growth percentage) ([8]; 48 h): 12.07% | inhibition at 10 µM ([8]; Homo sapiens): 87.9% | GP (growth percentage) [9]: −43.48% | TGI [10]: 2.92 µM | GI50 ([10]; Homo sapiens): 1.03 µM | CC50 [10, 35]: 8.29 µM | TGI [11]: 4.14 µM | GI50 ([11]; Homo sapiens): 0.543 µM | CC50 [11, 35]: > 100 µM | TGI [12]: 4.24 µM | GI50 ([12]; Homo sapiens): 1.78 µM | LC50 ([12]; Homo sapiens): 16.2 µM | TGI [13]: 7.91 µM | GI50 ([13]; Homo sapiens): 2.22 µM | CC50 [13, 35]: 29.7 µM | TGI [14]: 3.28 µM | GI50 ([14]; Homo sapiens): 1.74 µM | LC50 ([14]; Homo sapiens): 6.18 µM | TGI [15]: 3.66 µM | GI50 ([15]; Homo sapiens): 1.73 µM | CC50 [15, 35]: 7.74 µM | TGI [16]: 2.55 µM | GI50 ([16]; Homo sapiens): 1.13 µM | CC50 [16, 35]: 5.76 µM | TGI [17]: 2.89 µM | GI50 ([17]; Homo sapiens): 1.41 µM | CC50 [17, 35]: 5.92 µM | TGI [18]: 2.94 µM | GI50 ([18]; Homo sapiens): 1.47 µM | LC50 (concentration killing 50% of cells) ([18]; Homo sapiens): 5.87 µM | TGI [19]: 4.20 µM | GI50 ([19]; Homo sapiens): 2.03 µM | LC50 (50% lethal concentration) ([19]; Homo sapiens): 8.7 µM | TGI [20]: 3.43 µM | GI50 ([20]; Homo sapiens): 1.63 µM | LC50 (50% lethal concentration) ([20]; Homo sapiens): 7.21 µM | TGI ([21]; 48 h): 3.27 µM | GI50 ([21]; Homo sapiens, U-251, 48 h): 1.7 µM | LC50 (concentration killing 50% of cells) ([21]; Homo sapiens, U-251, 48 h): 6.28 µM | TGI [22]: 2.83 µM | GI50 ([22]; Homo sapiens): 1.46 µM | LC50 ([22]; Homo sapiens): 5.5 µM | TGI [23]: 0.671 µM | GI50 ([23]; Homo sapiens): 0.266 µM | CC50 [23, 35]: 2.45 µM | TGI [24]: 2.86 µM | GI50 ([24]; Homo sapiens): 1.44 µM | CC50 [24, 35]: 5.69 µM | TGI [25]: 2.22 µM | GI50 ([25]; Homo sapiens): 1 µM | LC50 (concentration killing 50% of cells) ([25]; Homo sapiens): 4.91 µM | TGI [26]: 3.33 µM | GI50 ([26]; Homo sapiens): 1.84 µM | LC50 (lethal concentration 50%) ([26]; Homo sapiens): 6.03 µM | TGI [27]: 10.8 µM | GI50 ([27]; Homo sapiens): 2.65 µM | LC50 ([27]; Homo sapiens): 34.8 µM | TGI [28]: 2.84 µM | GI50 ([28]; Homo sapiens): 1.45 µM | LC50 (lethal concentration, 50% net cell kill) ([28]; Homo sapiens): 5.57 µM | TGI [29]: 2.78 µM | GI50 ([29]; Homo sapiens): 1.44 µM | LC50 ([29]; Homo sapiens): 5.39 µM | TGI [30]: 3.04 µM | GI50 ([30]; Homo sapiens): 1.59 µM | LC50 (concentration killing 50% of starting cells) ([30]; Homo sapiens): 5.8 µM | TGI [31]: 3.72 µM | GI50 ([31]; Homo sapiens): 2.25 µM | LC50 (concentration killing 50% of starting cells) ([31]; Homo sapiens): 6.18 µM | TGI [32]: 2.71 µM | GI50 ([32]; Homo sapiens): 1.4 µM | LC50 (lethal concentration 50%) ([32]; Homo sapiens): 5.23 µM | TGI [33]: 2.88 µM | GI50 ([33]; Homo sapiens): 1.52 µM | LC50 (concentration giving 50% net cell kill) ([33]; Homo sapiens): 5.46 µM | TGI [34]: 3.17 µM | GI50 ([34]; Homo sapiens, T47D): 0.467 µM | CC50 ([34]; Homo sapiens, T47D, read-out: LC50 (the source's name)): > 100 µM
